Results reported in US10195196B2, “1,4-disubstituted pyridazine analogs there of and methods for treating SMN-deficiency-related conditions” (NOVARTIS AG, priority 2012, dated 2019).

System: SMN protein
Test: cellular SMN ELISA (SMN protein elevation)
Assay type: cell-based
Details: myoblast cell line from SMNdelta7 mouse model, 24 hours treatment; for SMN activity Fold: fold activation over DMSO control
In short: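 SMNdelta7 mouse-derived myoblasts were treated with compound for 24 h, then lysed. SMN protein was quantified by sandwich ELISA (HRP/TMB, 450 nm) and reported as fold over DMSO and EC50, over 20 nM–10 μM or 100 pM–10 μM depending on condition.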

[1] = ELISA condition 2: compound concentration 100 pM-10 uM
[2] = ELISA condition 1: compound concentration range 20 nM-10 uM

| Compound | EC50 [1] [nM] | SMN activity Fold [1] [Fold] | EC50 [2] [nM] | SMN activity Fold [2] [Fold] |
| --- | --- | --- | --- | --- |
| CC1(C)CC(Oc2ccc(-c3cc4ccccc4cc3O)nn2)CC(C)(C)N1 [Example 3-6, 3-[6-(2,2,6,6-tetramethyl-piperidin-4-yloxy)-pyridazin-3-yl]-naphthalen-2-ol] | 110 | 3.01 | – | – |
| CN(c1ccc(-c2ccc3cc(O)ccc3c2)nn1)C1CC(C)(C)NC(C)(C)C1 [Example 1-8, 6-(6-(methyl-(2,2,6,6-tetra-methylpiperidin-4-yl)amino)-pyridazin-3-yl)naphthalen-2-ol] | – | – | 320 | 2.18 |
| Oc1cc(-n2cccn2)ccc1-c1ccc(N2CCC3(CCCN3)C2)nn1 (centres unmarked) [Example 18-11, 2-[6-(1,7-diaza-spiro[4.4]non-7-yl)-pyridazin-3-yl]-5-pyrazol-1-yl-phenol] | 320 | 2.53 | – | – |
| Oc1cc(-n2cccn2)ccc1-c1ccc(OCC2CCNC2)nn1 (single isomer, unassigned) [Example 17-9, 5-(1H-pyrazol-1-yl)-2-(6-(pyrrolidin-3-ylmethoxy)pyridazin-3-yl)phenol] | 1670 | 2.63 | – | – |
| CN(c1ccc(-c2ccc(-n3nccc3N)cc2O)nn1)C1CC(C)(C)NC(C)(C)C1 [Example 16-3, 5-(5-amino-1H-pyrazol-1-yl)-2-(6-(methyl-(2,2,6,6-tetramethyl-piperidin-4-yl)amino)pyridazin-3-yl)phenol] | 625 | 2.39 | – | – |
| COc1cc(O)c(-c2ccc(N(C)C3CC(C)(C)NC(C)(C)C3)nn2)cc1OC [Example 3-10, 4,5-dimethoxy-2-{6-[methyl-(2,2,6,6-tetramethyl-piperidin-4-yl)-amino]-pyridazin-3-yl}-phenol] | 855 | 2.53 | – | – |
| CN(c1ccc(-c2cc(-c3cnn4c3CCCC4)ccc2O)nn1)C1CC(C)(C)NC(C)(C)C1 [Example 32-2, 2-(6-(methyl(2,2,6,6-tetramethylpiperidin-4-yl)amino)pyridazin-3-yl)-4-(4,5,6,7-tetrahydropyrazolo[1,5-a]pyridin-3-yl)phenol] | 396 | 2.49 | – | – |
| OCC1CN(c2ccc(-c3ccc(-n4cccn4)cc3O)nn2)CCN1 (centres unmarked) [Example 18-10, 2-[6-(3-hydroxy-methyl-piperazin-1-yl)-pyridazin-3-yl]-5-pyrazol-1-yl-phenol] | 386 | 2.55 | – | – |
| CN(c1ccc(-c2ccc(-n3ccnc3)cc2O)nn1)C1CC(C)(C)NC(C)(C)C1 [Example 12-1, 5-(1H-imidazole-1-yl)-2-(6-(methyl(2,2,6,6-tetramethyl-piperidin-4-yl)amino)pyridazin-3-yl)phenol] | 4 | 3.13 | – | – |
| CN(c1ccc(-c2ccc(-c3cncc(O)c3)cc2O)nn1)C1CC(C)(C)NC(C)(C)C1 [Example 41-13, 5-(3-hydroxy-4-(6-(methyl(2,2,6,6-tetramethylpiperidin-4-yl)amino)pyridazin-3-yl)phenyl)pyridin-3-ol] | 308 | 3.50 | – | – |
| CN(c1ccc(-c2ccc3cnccc3c2)nn1)C1CC(C)(C)NC(C)(C)C1 [Example 1-15, 6-(isoquinolin-6-yl)-N-methyl-N-(2,2,6,6-tetramethylpiperidin-4-yl)pyridazin-3-amine] | 197 | 2.93 | – | – |
| CN(c1ccc(-c2c(O)cc(-c3ccn(C)c(=O)c3)cc2F)nn1)C1CC(C)(C)NC(C)(C)C1 [Example 40-3, 4-(3-fluoro-5-hydroxy-4-(6-(methyl(2,2,6,6-tetramethylpiperidin-4-yl)amino)pyridazin-3-yl)phenyl)-1-methylpyridin-2(1H)-one] | 11 | 3.03 | – | – |
| COc1cncc(-c2ccc(-c3ccc(N(C)C4CC(C)(C)NC(C)(C)C4)nn3)c(O)c2)c1 [Example 41-1, 5-(5-methoxypyridin-3-yl)-2-(6-(methyl(2,2,6,6-tetramethylpiperidin-4-yl)amino)pyridazin-3-yl)phenol] | 125 | 2.78 | – | – |
| CN(c1ccc(-c2ccc(Cl)cc2O)nn1)C1CC(C)(C)N(C)C(C)(C)C1 [Example 3-2, 5-chloro-2-(6-(methyl(1,2,2,6,6-pentamethylpiperidin-4-yl)amino)pyridazin-3-yl)phenol] | – | – | 1070 | 2.06 |
| CN(c1ccc(-c2ccc(Cl)cc2O)nn1)C1CC(C)(C)NC(C)(C)C1 [Example 29-1, 5-chloro-2-(6-(methyl(2,2,6,6-tetramethylpiperidin-4-yl)amino)pyridazin-3-yl)phenol] | 113 | 2.49 | – | – |
| CC1(C)CC(Oc2ccc(-c3ccc(-c4ccnc(O)c4)cc3O)nn2)CC(C)(C)N1 [Example 41-9, 4-(3-hydroxy-4-(6-((2,2,6,6-tetramethylpiperidin-4-yl)oxy)pyridazin-3-yl)phenyl)pyridin-2-ol] | 72 | 4.2 | – | – |

| Compound | EC50 [1] [nM] | SMN activity Fold [1] [Fold] | EC50 [2] [nM] | SMN activity Fold [2] [Fold] |
| --- | --- | --- | --- | --- |
| CN(c1ccc(-c2cc3c(cc2O)C(=O)CC3)nn1)C1CC(C)(C)NC(C)(C)C1 [Example 35-1, 6-hydroxy-5-(6-(methyl(2,2,6,6-tetramethylpiperidin-4-yl)amino)pyridazin-3-yl)-2,3-dihydro-1H-inden-1-one] | 27 | 2.79 | – | – |
| C=CCc1c(O)ccc2cc(-c3ccc(N(C)C4CC(C)(C)NC(C)(C)C4)nn3)ccc12 [Example 6-1, 1-allyl-6-(6-(methyl(2,2,6,6-tetramethylpiperidin-4-yl)amino)pyridazin-3-yl)naphthalen-2-ol] | 630 | 2.04 | – | – |
| CN(c1ccc(-c2cc(-c3cn[nH]c3)c(F)cc2O)nn1)C1CC(C)(C)NC(C)(C)C1 [Example 34-4, 5-fluoro-2-(6-(methyl(2,2,6,6-tetramethylpiperidin-4-yl)amino)pyridazin-3-yl)-4-(1H-pyrazol-4-yl)phenol] | 37 | 2.34 | – | – |
| CC1(C)CC(Oc2ccc(-c3cc(-c4ccnc(O)c4)ccc3O)nn2)CC(C)(C)N1 [Example 32-9, 4-(4-hydroxy-3-(6-((2,2,6,6-tetramethylpiperidin-4-yl)oxy)pyridazin-3-yl)phenyl)pyridin-2-ol] | 485 | 2.90 | – | – |
| CN(c1ccc(-c2cc(-c3ccn[nH]3)ccc2O)nn1)C1CC(C)(C)NC(C)(C)C1 [Example 32-6, 2-(6-(methyl(2,2,6,6-tetramethylpiperidin-4-yl)amino)pyridazin-3-yl)-4-(1H-pyrazol-3-yl)phenol] | 92 | 2.69 | – | – |
| CN(c1ccc(-c2c(O)cc(-c3cc[nH]c(=O)c3)cc2F)nn1)C1CC(C)(C)NC(C)(C)C1 [Example 40-2, 4-(3-fluoro-5-hydroxy-4-(6-(methyl(2,2,6,6-tetramethylpiperidin-4-yl)amino)pyridazin-3-yl)phenyl)pyridin-2(1H)-one] | 25 | 2.78 | – | – |
| Cn1ccc(-c2ccc(O)c(-c3ccc(OC4CC(C)(C)NC(C)(C)C4)nn3)c2)cc1=O [Example 32-8, 4-(4-hydroxy-3-(6-((2,2,6,6-tetramethylpiperidin-4-yl)oxy)pyridazin-3-yl)phenyl)-1-methylpyridin-2(1H)-one] | 433 | 2.61 | – | – |
| CN(c1ccc(-c2cc3c(cc2O)C(O)CC3)nn1)C1CC(C)(C)NC(C)(C)C1 (centres unmarked) [Example 35-4, 5-(6-(methyl(2,2,6,6-tetramethylpiperidin-4-yl)amino)pyridazin-3-yl)-2,3-dihydro-1H-indene-1,6-diol] | 131 | 2.11 | – | – |
| Cn1ccc(-c2ccc(-c3ccc(OC4CC(C)(C)NC(C)(C)C4)nn3)c(O)c2)cc1=O [Example 41-11, 4-(3-hydroxy-4-(6-((2,2,6,6-tetramethylpiperidin-4-yl)oxy)pyridazin-3-yl)phenyl)-1-methylpyridin-2(1H)-one] | 12 | 2.78 | – | – |
| Oc1cc(-n2cccn2)ccc1-c1ccc(OCC2CCNC2)nn1 (single isomer, unassigned) [Example 17-8, 5-(1H-pyrazol-1-yl)-2-(6-(pyrrolidin-3-ylmethoxy)pyridazin-3-yl)phenol] | 3150 | 2.18 | – | – |
| Cc1nc2ccc(-c3ccc(NC4CC(C)(C)NC(C)(C)C4)nn3)cc2o1 [Example 2-3, 6-(2-methylbenzo-[d]oxazol-6-yl)-N-(2,2,6,6-tetramethyl-piperidin-4-yl)pyridazin-3-amine] | – | – | 1200 | 2.46 |
| CN(c1ccc(-c2c(O)cc(-c3cnn(C)c3)cc2OC(F)(F)F)nn1)C1CC(C)(C)NC(C)(C)C1 [Example 25-4, 2-(6-(methyl(2,2,6,6-tetramethylpiperidin-4-yl)amino)pyridazin-3-yl)-5-(1-methyl-1H-pyrazol-4-yl)-3-(trifluoromethoxy)phenol] | 199 | 2.30 | – | – |
| Cc1cnc(-c2cc(O)c(-c3ccc(N(C)C4CC(C)(C)NC(C)(C)C4)nn3)c(OCc3ccccc3)c2)o1 [Example 27-1, 3-(benzyloxy)-2-(6-(methyl(2,2,6,6-tetramethylpiperidin-4-yl)amino)pyridazin-3-yl)-5-(5-methyloxazol-2-yl)phenol] | 305 | 2.35 | – | – |
| CN(c1ccc(-c2ccc3cccnc3c2)nn1)C1CC(C)(C)NC(C)(C)C1 [Example 1-12, N-methyl-6-(quinolin-7-yl)-N-(2,2,6,6-tetramethyl-piperidin-4-yl)pyridazin-3-amine] | 367 | 2.54 | – | – |
| COc1cc(O)c(-c2ccc(N(C)C3CC(C)(C)NC(C)(C)C3)nn2)c(OC)c1 [Example 3-9, 3,5-dimethoxy-2-{6-[methyl-(2,2,6,6-tetramethyl-piperidin-4-yl)-amino]-pyridazin-3-yl}-phenol] | 323 | 2.88 | – | – |
